These results are taken from US20100298300A1, “TRIAZOLOPYRAZINE COMPOUNDS USEFUL FOR THE TREATMENT OF DEGENERATIVE & INFLAMMATORY DISEASES” (priority 2006, published 2010).

Structures are written as SMILES. Some results are limits rather than exact numbers.

For one test, the target named is T1, MAPKAPK5 (Homo sapiens, UniProt Q8IW41).
T1 sequence (Q8IW41 1-471 isoform Q8IW41-2): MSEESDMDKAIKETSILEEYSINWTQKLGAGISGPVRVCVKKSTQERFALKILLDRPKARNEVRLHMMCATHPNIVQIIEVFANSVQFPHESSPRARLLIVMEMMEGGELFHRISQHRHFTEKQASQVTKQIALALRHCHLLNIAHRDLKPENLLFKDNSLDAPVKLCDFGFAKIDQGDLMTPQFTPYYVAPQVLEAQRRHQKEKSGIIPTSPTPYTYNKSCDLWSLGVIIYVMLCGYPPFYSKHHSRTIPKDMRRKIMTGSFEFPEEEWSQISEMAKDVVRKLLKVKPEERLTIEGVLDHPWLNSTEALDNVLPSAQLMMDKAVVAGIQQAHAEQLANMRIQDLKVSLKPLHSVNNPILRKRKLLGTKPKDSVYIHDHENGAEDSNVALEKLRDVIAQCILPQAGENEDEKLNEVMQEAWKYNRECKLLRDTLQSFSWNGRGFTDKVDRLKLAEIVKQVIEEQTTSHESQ
Briefly: MAPKAP-K5 assay (FlashPlate kinase assay).

Test [1] concerns TNFα release by human PBMCs. Kind of test: Cytokine release by LPS stimulated human PBMCs (TNFα ELISA). It counts as cell-based. The settings on record: PBMC, 24 h, Table 5, LPS 1 μg/mL.
Test [2] concerns MMP1 expression by activated primary synovial fibroblasts. Briefly: 'MMP assay': MMP1 expression by complex trigger activated synovial fibroblasts (MMP1 ELISA). As to conditions: Homo sapiens, Fibroblast; Table 3; RASFs, complex trigger, 48 hrs, MMP1 ELISA. Format: cell-based.

What is called IC50 is the concentration that gives 50% inhibition. In general, EC50 refers to the concentration that produces a half-maximal response. On MAPKAPK5, `CC(C)N1CCN(c2ncc(Nc3ncc(-c4ccc5c(c4)CNC5=O)n4ncnc34)cn2)CC1` [Compound 101] returned an IC50 of 101 to 500 nM. Further, the EC50 in test [1] and in test [2] was more than 1000 nM in each case.

In turn, `CC(C)N1CCN(c2ccc(Nc3ncc(-c4ccsc4)n4ncnc34)cc2)CC1` [Compound 51, [4-(4-Isopropylpiperazin-1-yl)phenyl]-(5-thiophen-3-yl-[1,2,4]triazolo[1,5-a]pyrazin-8-yl)amine] had a half-inhibitory concentration (IC50) against MAPKAPK5 of more than 1000 nM. Also, the results for the EC50 in test [1] and in test [2] were more than 1000 nM and 501 to 1000 nM, respectively.

At MAPKAPK5, `O=C1NS(=O)(=O)c2cc(-c3cnc(Nc4ccc(N5CCOCC5)cc4)c4ncnn34)ccc21` [Compound 53, 6-[8-(4-Morpholin-4-yl-phenylamino)-[1,2,4]triazolo[1,5-a]pyrazin-5-yl]-1,1-dioxo-1,2-dihydro-1λ^6-benzo[d]isothiazol-3-one] returned a concentration for half-maximal inhibition (IC50) of more than 1000 nM. Also, the EC50 is more than 1000 nM in test [1] and 501 to 1000 nM in test [2].

`c1nc2c(Nc3ccc(N4CCN(C5CC5)CC4)nc3)ncc(-c3cn[nH]c3)n2n1` [Compound 60, [6-(4-Cyclopropylpiperazin-1-yl)pyridin-3-yl]-[5-(1H-pyrazol-4-yl)-[1,2,4]triazolo[1,5-a]pyrazin-8-yl]amine] yielded a concentration for half-maximal inhibition (IC50) against MAPKAPK5 of more than 1000 nM. Also, the 50% effective concentration (EC50) in test [1] and in test [2] was more than 1000 nM in each case.

At MAPKAPK5, `CN1CCN(c2ccc(Nc3ncc(-c4csc(C(N)=O)c4)n4ncnc34)cc2)CC1` [Compound 6, 4-{8-[4-(4-Methyl-piperazin-1-yl)-phenylamino]-[1,2,4]triazolo[1,5-a]pyrazin-5-yl}-thiophene-2-carboxylic acid amide] returned a concentration for half-maximal inhibition (IC50) of 1 to 100 nM. For the same compound, the EC50 in test [1] is more than 1000 nM; in test [2] it was 101 to 500 nM.

As for `CN1CCN(c2ccc(Nc3ncc(-c4cc[nH]c(=O)c4)n4ncnc34)cc2)CC1` [Compound 4, 4-(8-(4-(4-methylpiperazin-1-yl)phenylamino)-[1,2,4]triazolo[1,5a]pyrazin-5-yl)pyridin-2(1H)-one], the IC50 against MAPKAPK5 was more than 1000 nM. Further, the EC50 in test [1] and in test [2] was more than 1000 nM throughout.

In turn, `O=C1NCc2cc(-c3cnc(Nc4ccc(F)cc4F)c4ncnn34)ccc21` [Compound 174] returned an IC50 on MAPKAPK5 of more than 1000 nM. The concentration for a half-maximal effect (EC50) in test [1] and in test [2] was more than 1000 nM throughout.

Consider `CC(=O)c1ccc(-c2cnc(Nc3ccc(N4CCOCC4)cc3)c3ncnn23)s1` [Compound 69], for which, at MAPKAPK5, the IC50 was more than 1000 nM. The EC50 in test [1] and in test [2] was more than 1000 nM throughout.

For `c1nc2c(Nc3ccc(N4CCOCC4)cc3)ncc(-c3ccc4nonc4c3)n2n1` [Compound 72], the IC50 on MAPKAPK5 is more than 1000 nM. For the same compound, the concentration giving a half-maximal response (EC50) in test [1] and in test [2] was more than 1000 nM in each case.

The compound `CC(C)N1CCC(c2ccc(Nc3ncc(-c4csc(C(N)=O)c4)n4ncnc34)cc2)CC1` [Compound 89, 4-{8-[4-(1-Isopropylpiperidin-4-yl)phenylamino]-[1,2,4]triazolo[1,5-a]pyrazin-5-yl}-thiophene-2-carboxylic acid amide] returned an IC50 on MAPKAPK5 of 1 to 100 nM. The EC50 in test [1] is more than 1000 nM; in test [2] it was 501 to 1000 nM.

Compound `CN1CCN(c2ccc(Nc3ncc(-c4ccc(C(N)=O)cc4)n4ncnc34)cc2)CC1` [Compound 3] came in with a 50% inhibitory concentration (IC50) against MAPKAPK5 of more than 1000 nM. Moreover, the EC50 in test [1] is more than 1000 nM; in test [2] it was 101 to 500 nM.

Compound `O=C1NCc2cc(-c3cnc(Nc4ccc(N5CCOCC5)nc4)c4ncnn34)ccc21` [Compound 87] registered a 50% inhibitory concentration (IC50) at MAPKAPK5 of 1 to 100 nM. Also, the concentration for a half-maximal effect (EC50) in test [1] was more than 1000 nM; in test [2], 101 to 500 nM.

Compound `NC(=O)c1coc(-c2cnc(Nc3ccc(N4CCOCC4)cc3)c3ncnn23)c1` [Compound 29, 5-(8-(4-Morpholinophenylamino)-[1,2,4]triazolo[1,5-a]pyrazin-5-yl)furan-3-carboxamide] had a concentration for half-maximal inhibition (IC50) at MAPKAPK5 of more than 1000 nM. Further, the EC50 in test [1] and in test [2] was more than 1000 nM in each case.
